# Patent US9149475B2, “Protein kinase C inhibitors and uses thereof” (Rigel Pharmaceuticals, Inc., priority 2009, dated 2015)
# pIC50: −log10 of the molar value.
# Test system: Human primary T cells
# Assay: IL-2 ELISA, human primary T cell, anti-CD3+CD28+ (whole cell assay)
# Assay type: cell-based
# Settings: Homo sapiens, T-cell, 24 h, human primary T cells stimulated with anti-CD3 + anti-CD28, 24 hours
# In short: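 PBMC-derived T cells, pre-expanded on αCD3/αCD28 with IL-2 and then washed free of IL-2, were preincubated with compound for 1 hr at 37° C (100,000 cells/well). They were then stimulated on 1 μg/ml αCD3 plus 5 μg/ml αCD28 for 24 h, and supernatant IL-2 was measured by ELISA. The counter-assay used 0.5 ng/ml PMA plus 0.1 μM ionomycin instead.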
row,pIC50,SMILES
1,> 6.60,"CN1C(C)(C)CC(Nc2nc(Nc3ccc(C4CC4)c(-n4cnnn4)c3)ncc2F)CC1(C)C [III-119, N^2-(4-cyclopropyl-3-(1H-tetrazol-1-yl)phenyl)-5-fluoro-N^4(1,2,2,6,6-pentamethylpiperidin-4-yl)pyrimidine-2,4-diamine]"
2,6.00 to 6.30,"Cn1nnnc1-c1cc(C#N)cc(Nc2ncc(F)c(NC3CC(C)(C)NC(C)(C)C3)n2)c1 [III-143, 3-(5-fluoro-4-(2,2,6,6-tetramethylpiperidin-4-ylamino)pyrimidin-2-ylamino)-5-(1-methyl-1H-tetrazol-5-yl)benzonitrile]"
3,> 6.60,"CC1(C)CC(Nc2nc(Nc3ccc(OC4CCN(CCF)CC4)c(Cl)c3)ncc2F)CC(C)(C)N1 [III-96, N2-(3-chloro-4-(1-(2-fluoroethyl)piperidin-4-yloxy)phenyl)-5-fluoro-N4-(2,2,6,6-tetramethylpiperidin-4-yl)pyrimidine-2,4-diamine]"
4,> 6.60,"CC1(C)CC(Nc2nc(Nc3ccc(C4CC4)c(-n4cnnn4)c3)ncc2F)CC(C)(C)N1 [III-118, N^2-(4-cyclopropyl-3-(1H-tetrazol-1-yl)phenyl)-5-fluoro-N^4(2,2,6,6-tetramethylpiperidin-4-yl)pyrimidine-2,4-diamine]"
5,6.30 to 6.60,"CCNC(=O)N1CCCC(Oc2ccc(Nc3ncc(F)c(NC4CC(C)(C)N(C)C(C)(C)C4)n3)cc2OC(F)F)CC1 (stereo not shown) [III-87, 4-(2-(difluoromethoxy)-4-(5-fluoro-4-(1,2,2,6,6-pentamethylpiperidin-4-ylamino)pyrimidin-2-ylamino)phenoxy)-N-ethylazepane-1-carboxamide]"
6,6.00 to 6.30,"CC(C)N1CCC(Oc2ccc(Nc3ncc(F)c(NC4CC(C)(C)N(C)C(C)(C)C4)n3)cc2OC(F)F)C(F)(F)C1 (stereo not shown) [III-107, N2-(4-(3,3-difluoro-1-isopropylpiperidin-4-yloxy)-3-(difluoromethoxy)phenyl)-5-fluoro-N4-(1,2,2,6,6-pentamethylpiperidin-4-yl)pyrimidine-2,4-diamine]"
7,6.00 to 6.30,"CC1(C)CC(Nc2nc(Nc3cccc(-c4nnnn4CCF)c3)ncc2F)CC(C)(C)N1 [III-75, 5-fluoro-N2-(3-(1-(2-fluoroethyl)-1H-tetrazol-5-yl)phenyl)-N4-(2,2,6,6-tetramethylpiperidin-4-yl)pyrimidine-2,4-diamine]"
8,< 6.00,"CC(C)N1CCC(Oc2ccc(Nc3ncc(F)c(NC4CC(C)(C)N(CC(F)(F)F)C(C)(C)C4)n3)cc2OC(F)F)CC1 [III-3, N2-(3-(Difluoromethoxy)-4-(1-isopropylpiperidin-4-yloxy)phenyl)-5-fluoro-N4-(2,2,6,6-tetramethyl-1-(2,2,2-trifluoroethyl)piperidin-4-yl)pyrimidine-2,4-diamine]"
9,> 6.60,"CC(C)N1CCC(Oc2ccc(Nc3ncc(F)c(NC4CC(C)(C)N(C)C(C)(C)C4)n3)cc2Cl)CC1 [III-95, N2-(3-chloro-4-(1-isopropylpiperidin-4-yloxy)phenyl)-5-fluoro-N4-(1,2,2,6,6-pentamethylpiperidin-4-yl)pyrimidine-2,4-diamine]"

# Further lines, the compound ahead of its results:
row,SMILES,pIC50
1,"Cc1nnnn1-c1cc(Nc2ncc(F)c(NC3CC(C)(C)NC(C)(C)C3)n2)ccc1OC(F)(F)F [Compound I-21, 5-fluoro-N2-(3-(5-methyl-1H-tetrazol-1-yl)-4-(trifluoromethoxy)phenyl)-N4-(2,2,6,6-tetramethylpiperidin-4-yl)pyrimidine-2,4-diamine]",> 6.60
2,"CN1C(C)(C)CC(Nc2nc(Nc3ccc(OC4CCN(CC(F)(F)F)CC4)c(OC(F)F)c3)ncc2F)CC1(C)C [Compound I-145, N2-(4-(1-(2,2,2-trifluoroethyl)piperidin-4-yloxy)-3-(difluoromethoxy)phenyl)-5-fluoro-N4-(1,2,2,6,6-pentamethylpiperidin-4-yl)pyrimidine-2,4-diamine]",6.30 to 6.60
3,"Cc1nnnn1-c1cc(Nc2ncc(F)c(NC3CC(C)(C)N(C)C(C)(C)C3)n2)ccc1F [Compound I-9, 5-fluoro-N2-(4-fluoro-3-(5-methyl-1H-tetrazol-1-yl)phenyl)-N4-(1,2,2,6,6-pentamethylpiperidin-4-yl)pyrimidine-2,4-diamine]",> 6.60
4,"CC1(C)CC(Nc2nc(Nc3ccc(OCCCN4CCOCC4)c(OC(F)F)c3)ncc2F)CC(C)(C)N1 [Compound I-47, N2-(4-(3-morpholinopropoxy)-3-(difluoromethoxy)phenyl)-5-fluoro-N4-(2,2,6,6-tetramethylpiperidin-4-yl)pyrimidine-2,4-diamine]",6.00 to 6.30
5,"CC(C)N1CC[C@H](Oc2ccc(Nc3ncc(F)c(NC4CC(C)(C)NC(C)(C)C4)n3)cc2OC(F)F)C1 [Compound I-148, N2-(4-((S)-1-isopropylpyrrolidin-3-yloxy)-3-(difluoromethoxy)phenyl)-5-fluoro-N4-(2,2,6,6-tetramethylpiperidin-4-yl)pyrimidine-2,4-diamine]",6.30 to 6.60
6,"CC1(C)CC(Nc2nc(Nc3ccc(OCCCn4cccc4)c(OC(F)F)c3)ncc2F)CC(C)(C)N1 [Compound I-42, N2-(4-(3-(1H-pyrrol-1-yl)propoxy)-3-(difluoromethoxy)phenyl)-5-fluoro-N4-(2,2,6,6-tetramethylpiperidin-4-yl)pyrimidine-2,4-diamine]",> 6.60
7,"CC1(C)CC(Nc2nc(Nc3ccc(OCCN4CCOCC4)c(C(F)(F)F)c3)ncc2F)CC(C)(C)N1 [Compound I-65, N2-(4-(2-morpholinoethoxy)-3-(trifluoromethyl)phenyl)-5-fluoro-N4-(2,2,6,6-tetramethylpiperidin-4-yl)pyrimidine-2,4-diamine]",6.00 to 6.30
8,"CC1(C)CC(Nc2nc(Nc3cc(F)cc(OCCn4cncn4)c3)ncc2F)CC(C)(C)N1 [Compound I-39, N2-(3-(2-(1H-1,2,4-triazol-1-yl)ethoxy)-5-fluorophenyl)-5-fluoro-N4-(2,2,6,6-tetramethylpiperidin-4-yl)pyrimidine-2,4-diamine]",< 6.00
9,"CC(C)Oc1ncc(Nc2ncc(F)c(NC3CC(C)(C)N(C)C(C)(C)C3)n2)cc1-c1nnnn1C1CC1 [Compound I-137, N2-(5-(1-cyclopropyl-1H-tetrazol-5-yl)-6-isopropoxypyridin-3-yl)-5-fluoro-N4-(1,2,2,6,6-pentamethylpiperidin-4-yl)pyrimidine-2,4-diamine]",> 6.60

# Same assay, conditions: human primary T cells stimulated with anti-CD3 + anti-CD28, 24 hours
row,pIC50,SMILES
1,6.30 to 6.60,"CCCc1nnnn1-c1cc(Nc2ncc(C#N)c(NC3CC(C)(C)NC(C)(C)C3)n2)ccc1OC [Compound I-81, 5-cyano-N2-[4-methoxy-3-(5-propyl-1H-tetrazol-1-yl)]phenyl-N4-(2,2,6,6-tetramethylpiperidin-4-yl)-2,4-pyrimidinediamine]"
2,< 6.00,"CCc1nnnn1-c1cc(Nc2ncc(C(N)=O)c(NC3CC(C)(C)NC(C)(C)C3)n2)ccc1OC(F)F [Compound I-83, 5-aminocarbonyl-N2-[4-difluoromethoxy-3-(5-ethyl-1H-tetrazol-1-yl)]phenyl-N4-(2,2,6,6-tetramethylpiperidin-4-yl)-2,4-pyrimidinediamine]"
3,> 6.60,"CN1C(C)(C)CC(Nc2nc(Nc3cccc(-c4nnnn4CCF)c3)ncc2C#N)CC1(C)C [Compound I-96, 5-Cyano-N2-{3-[1-N-(2-fluoroethyl)-(tetrazol-5-yl)]}phenyl-N4-(1,2,2,6,6-pentamethylpiperidin-4-yl)-2,4-pyrimidinediamine]"
4,< 6.00,"CCCc1nnnn1-c1cc(Nc2ncc(C(N)=O)c(NC3CC(C)(C)NC(C)(C)C3)n2)ccc1OC [Compound I-76, 5-aminocarbonyl-N2-[4-methoxy-3-(5-propyl-1H-tetrazol-1-yl)]phenyl-N4-(2,2,6,6-tetramethylpiperidin-4-yl)-2,4-pyrimidinediamine]"
